Experimental data reported in patent EP2161266A1, “Benzofuran derivatives as orexin receptor antagonists” (EVOTEC Neurosciences GmbH, priority 2008, dated 2010).

Molecular target: T1, OX1 (Mus musculus, UniProt P58307)
T1 sequence (P58307 1-416): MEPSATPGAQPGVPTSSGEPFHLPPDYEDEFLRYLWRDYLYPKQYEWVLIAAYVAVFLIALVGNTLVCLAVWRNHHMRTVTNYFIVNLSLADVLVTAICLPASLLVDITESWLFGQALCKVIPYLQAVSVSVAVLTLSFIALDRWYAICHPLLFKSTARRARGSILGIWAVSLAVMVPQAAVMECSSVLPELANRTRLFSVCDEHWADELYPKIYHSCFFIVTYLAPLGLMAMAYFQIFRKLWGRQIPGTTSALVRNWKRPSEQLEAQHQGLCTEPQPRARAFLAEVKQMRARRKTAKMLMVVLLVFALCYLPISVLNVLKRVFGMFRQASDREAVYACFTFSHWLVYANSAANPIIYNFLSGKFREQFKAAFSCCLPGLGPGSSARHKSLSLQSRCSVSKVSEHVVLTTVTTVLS
Assay: not given
Details: pretreatment before naloxone-precipitated withdrawal; Sharf et al, Biol Psychiatry, 2008; cited from earlier work

Compound | withdrawal symptoms
Cc1nc2ccc(NC(=O)Nc3ccnc4cccnc34)cc2o1 [SB-334867] | striking reduction in several withdrawal symptoms

Molecular target: T2, human Orexin-1 receptor (hOX1R) (Homo sapiens, UniProt O43613)
T2 construct: host or cells: CHO-K1
T2 sequence (O43613 1-425): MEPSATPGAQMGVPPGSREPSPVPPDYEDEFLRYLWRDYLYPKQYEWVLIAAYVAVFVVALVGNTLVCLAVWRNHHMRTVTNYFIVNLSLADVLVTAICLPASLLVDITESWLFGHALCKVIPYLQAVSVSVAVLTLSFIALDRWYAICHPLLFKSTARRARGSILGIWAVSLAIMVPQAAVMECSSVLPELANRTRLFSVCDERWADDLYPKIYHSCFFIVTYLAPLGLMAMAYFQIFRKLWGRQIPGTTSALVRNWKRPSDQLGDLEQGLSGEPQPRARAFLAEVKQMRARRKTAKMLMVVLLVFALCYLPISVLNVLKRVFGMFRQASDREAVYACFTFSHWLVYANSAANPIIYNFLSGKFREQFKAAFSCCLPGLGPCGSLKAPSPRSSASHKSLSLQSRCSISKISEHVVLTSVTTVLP
Assay: Ca2+-flux assay for IC50 determination in CHO-hOX1R cells (Orexin-A stimulated)
Type: cell-based
Details: 5nM Orexin-A agonist, fluo-4 fluorescence, compounds 1.28nM to 20µM, triplicates, read-out: 0X1
Excerpt: A CHO-K1 cell line stably expressing human Orexin-1 receptor (hOX1R, coding sequence of AF041243) was obtained from Euroscreen/PerkinElmer (CHO-hOX1R, ES-330-C). A plasmid containing the human Orexin-2 receptor (hOX2R) cDNA was purchased from RZPD (RZPDo834A1045-pT-REx-DEST30). The human Orexin-2 receptor coding region was amplified in a gradient PCR reaction using hOX2Rfor (5' ccaggatccgc […]) and hOX2Rrev (5' […]) primers containing restriction sites for the restriction enzymes BamHI and NotI. The PCR reaction was performed with the LightCycler system from Roche Applied Science. The amplified DNA fragment was digested with restriction enzymes BamHI and Notl (Fermentas) and subsequently cloned into the BamHI/NotI sites of the pFB-Neo vector (Stratagene) thereby generating plasmid pFB-Neo-hOX2R. For a stably expressing CHO-hOX2R cell line viral transduction of CHO-K1 cells were performed by using the pFB-Neo-hOX2R plasmid and the pVPack vector system from Stratagene according to the manufacturer's manual. Cells expressing the hOX2 receptor were selected using G418 at a final concentration of 500µg/ml and single cell clones were produced by limited dilution cloning.
CHO-hOX1R cells were grown in HAM F12 Nutrient Mixture (Sigma, N6658), 10%Fetal Bovine Serum (Sigma, F9665), 1% Penstrep (Sigma, p4333) and […] G418 (Sigma, A1720). CHO-hOX2R cells were grown in DMEM F12 medium (Sigma, D8437) supplemented with 10%Fetal Bovine Serum (Sigma, F9665), 1% Penstrep (Sigma, p4333) and […] G418 (Sigma, A1720). Cells were maintained under 5% CO2 atmosphere at 37°C. Cells were passaged every 2-3 days.
CHO-hOX1R and CHO-hOX2R cells were seeded at a density of 7500 cells per well into black, 384 well Costar Cellbind plates and cultured overnight in the appropriate cell culture medium as described above without G418 selection. The next day the medium was removed and the cells were incubated for 1.5hrs at 37°C in fluo-4, AM dye solution [2µM fluo-4,AM (Molecular Probes; F-14202, Lot#28C1-12) in 5mM probenecid (Sigma, P-8761, Lot# 121K1662), 0.1% Bovine Serum Albumin (BSA, MERCK, 1.12018.0100), 1xHBSS (Invitrogen, 14025-050), 20mM HEPES (Invitrogen,. 15630-056)]. […] All compound concentrations were measured in triplicates. Subsequently, agonist solution (5nM Orexin-A, TOCRIS, 1455) in 5mM probenecid, 0.1% BSA, 1xHBSS, 20mM HEPES was added during incubation of the plate at 37°C in the fluorescence plate reader (FlexStation, Molecular Devices). Fluorescence was measured for 0-60 seconds per well at an excitation of 485nm and emission of 538nm. For EC50 determination of Orexin-A the cells were incubated as described above for 20min at 37°C in probenecid buffer (5mM probenecid, 0.1% BSA, 1xHBSS, 20mM HEPES, 1%DMSO) without compound solution. Agonist injection occurred in the fluorescence plate reader (FlexStation, Molecular Devices) at different concentrations ranging from 0-100nM in 5mM probenecid, 0.1% BSA, 1xHBSS, 20mM HEPES. Detection of fluorescence was as described above.

IC50 [nM] | Compound
< 1000 | Cc1nc2ccc(NC(=O)c3oc4ccccc4c3C)cc2s1 [Example 14, N-(2-Methyl-6-benzothiazolyl)-3-methyl-2-benzofurancarboxamide]
< 300 | CCN(CC)c1ccc(NC(=O)c2oc3ccccc3c2C)cc1 [Example 2, N-[4-(Diethylamino)phenyl]-3-methyl-2-benzofurancarboxamide]
< 3000 | COc1ccc(NC(=O)c2oc3ccccc3c2C)cc1Cl [Example 7, N-(3-Chloro-4-methoxyphenyl)-3-methyl-2-benzofurancarboxamide]
< 300 | CCc1c(C(=O)Nc2ccc3nc(C)oc3c2)oc2ccccc12 [Example 6, N-(2-Methyl-6-benzoxazolyl)-3-ethyl-2-benzofurancarboxamide]
< 1000 | N-(4-Thioanisolyl)-3-methyl-2-benzofurancarboxamide [Example 11]
< 1000 | CCN(CC)c1ccc(NC(=O)c2oc3ccccc3c2COC)cc1 [Example 4, N-[4-(Diethylamino)phenyl]-3-(methoxymethyl)-2-benzofurancarboxamide]
< 300 | CCN(CC)c1ccc(NC(=O)c2oc3ccccc3c2OC)cc1 [Example 12, N-[4-(Diethylamino)phenyl]-3-methoxy-2-benzofurancarboxamide]
< 300 | Cc1nc2ccc(NC(=O)c3oc4ccccc4c3C)cc2o1 [Example 3, N-(2-Methyl-6-benzoxazolyl)-3-methyl-2-benzofurancarboxamide]
< 3000 | Cc1c(C(=O)Nc2ccc3c(c2)OCCCO3)oc2ccccc12 [Example 8, N-(3,4-dihydro-2H-1,5-benzodioxepin-7-yl)-3-methyl-2-benzofurancarboxamide]
< 3000 | CCOc1ccc(NC(=O)c2oc3ccccc3c2C)cc1 [Example 9, N-(4-Ethoxyphenyl)-3-methyl-2-benzofurancarboxamide]
< 300 | CCc1c(C(=O)Nc2ccc(N(CC)CC)cc2)oc2ccccc12 [Example 5, N-[4-(Diethylamino)phenyl]-3-ethyl-2-benzofurancarboxamide]
< 3000 | CCN(CC)c1ccc(NC(=O)c2oc3ccccc3c2NC(C)=O)cc1 [Example 15, N-[4-(Diethylamino)phenyl]-3-(acetylamino)-2-benzofurancarboxamide]
< 3000 | Cc1c(C(=O)Nc2ccc3c(c2)OCCO3)oc2ccccc12 [Example 1, N-(2,3-Dihydro-1,4-benzodioxin-6-yl)-3-methyl-2-benzofurancarboxamide]
< 1000 | CCN(CC)c1ccc(NC(=O)c2cc3ccccc3o2)cc1 [Example 13, N-[4-(Diethylamino)phenyl]-2-benzofurancarboxamide]
< 1000 | Cc1c(C(=O)Nc2ccc3c(ccn3C)c2)oc2ccccc12 [Example 10, N-(1-Methyl-1H-indol-5-yl)-3-methyl-2-benzofurancarboxamide]
